Reference: patent US11974989B2, “Therapeutic uses of glucokinase activators in combination with insulin or insulin analogs” (vTv Therapeutics LLC, priority 2018, dated 2024)
“And” between values parts separate entries of the source, which are not always exact repeats. Identical values can stand only once.

What was measured:
Format in all cases: in vivo, human
[1] = tested on: adult patients with type 1 diabetes (T1DM); experiment: Open-label weekly dose escalation study: CGM blood glucose time in range; details: for median value of the percentage of time blood glucose levels were in the range of 70-180 mg/dL: median over subjects (FIG. 1), baseline 52.0%; for median value of the percentage of time blood glucose levels were greater than 180 mg/dL (hyperglycemia): median over subjects (FIG. 4), baseline 37%; for Percentage of time (using CGM) blood glucose level is in range of 70-180 mg/dL / Percentage of time (using CGM) blood glucose level is above 180 mg/dL / Percentage of time (using CGM) blood glucose level is below 54 mg/dL / Percentage of time (using CGM) blood glucose level is between 54 and 70 mg/dL: median of days 3-6, one per subject 1-5
Protocol: (§1) An open-label, weekly dose escalation study with up to 3 dose escalations was conducted. Five adult patients with type 1 diabetes (T1DM) who were using a continuous glucose monitoring (CGM) device and insulin delivered by continuous subcutaneous insulin infusion (CSII) were dosed with a once daily with a dose of 400, 800 or 1200 mg of {2-[3-cyclohexyl-3-(trans-4-propoxy-cyclohexyl)-ureido]-thiazol-5-ylsulfanyl}-acetic acid (UT-1) for seven days at each dose level.
(§2) The initial 7 days (days −7 to −1) of the study were used to obtain baseline laboratory samples and to record baseline insulin doses and blood glucose levels during a patient's usual insulin, dietary, and activity regimen. The once daily treatment dose of UT-1 was administered morning meal. Safety labs were collected on days −7, 1, 8, 15, 21 and 28. Insulin pump data and CGM data for each dosing period was collected on days 1, 8, 15, 21, and 28. Insulin was adjusted by a patient as required to maintain glycemic control. Data from day 3 to day 6 of each dosing period or baseline period was used in the analysis of the data.

[2] = Open-label weekly dose escalation study: pharmacokinetic data; details: 1200 mg group compared to the 800 mg group
Protocol: as §1, §2

[3] = tested on: adult patients with type 1 diabetes (T1DM); experiment: Open-label weekly dose escalation study: insulin pump data (bolus and basal insulin dose); details: for mean value of bolus insulin dose per day: over subjects (FIG. 5), baseline 27.1 mean U/day; for Mean units of basal insulin units administered per day / Mean units of bolus insulin units administered per day: mean of days 3-6, one per subject 1-5
Protocol: as §1, §2

adult patients with T1DM [4] = experiment: Multi-center double-blind placebo-controlled 12-week study: safety and tolerability; details: 800 mg once daily up to 12 weeks
Protocol: (§3) A multi-center double-blind placebo-controlled study with a 2-week single-blind placebo run-in period to evaluate UT-1 as a potential adjunctive treatment to insulin therapy for T1DM was conducted. The study examined the response in 20 adult patients with T1DM who were using a continuous glucose monitoring (CGM) device and insulin delivered by continuous subcutaneous insulin infusion (CSII) dosed once daily with either placebo or 800 mg UT-1 for up to 12 weeks. The once daily treatment was administered with the morning meal. Safety and assessments labs were collected prior to the placebo-run in period, at Day 1 prior to dosing with blinded study medication, at weeks 2, 4, 6, 8, 12 and at approximately week 13. Insulin pump data and CGM data was collected from the single-blind placebo run-in period to the end of dosing. A quality of life and treatment satisfaction questionnaires were also used. Insulin was adjusted by patients as required to maintain glycemic control.

[5] = tested on: adult patients with type 1 diabetes (T1DM); experiment: Open-label weekly dose escalation study: safety labs; details: 400, 800, 1200 mg once daily, 7 days each
Protocol: as §1, §2

adult patients with T1DM [6] = experiment: Multi-center double-blind placebo-controlled 12-week study, adjunct to insulin: HbA1c, responder analysis, ketones, insulin usage
Protocol: as §3
Patients in this study received insulin adjustments to optimize glucose levels. […] Of all study patients, there was a greater proportion of responders in the group treated with UT-1 (75%) than in the placebo group (9%) (p=0.006).

With `CCCO[C@H]1CC[C@H](N(C(=O)Nc2ncc(SCC(=O)O)s2)C2CCCCC2)CC1` [UT-1, {2-[3-cyclohexyl-3-(trans-4-propoxy-cyclohexyl)-ureido]-thiazol-5-ylsulfanyl}-acetic acid] the “median value of the percentage of time blood glucose levels were in the range of 70-180 mg/dL” value ([1]; 400 mg dose) was 67.9%, the “median value of the percentage of time blood glucose levels were greater than 180 mg/dL (hyperglycemia)” value ([1]; 400 mg dose) was 30.92% and the “median value of the percentage of time blood glucose levels were in the range of 70-180 mg/dL” value ([1]; 800 mg dose) was 75.7%. The “median value of the percentage of time blood glucose levels were greater than 180 mg/dL (hyperglycemia)” value ([1]; 800 mg dose) was 20.46%, the “Percentage of time (using CGM) blood glucose level is in range of 70-180 mg/dL” value (from here on “Percentage of time … in range of 70-180 mg/dL”) ([1]; UT-1 400 mg once daily for 7 days with CSII insulin) was 69.3% and 56.3% and 69.6% and 67.9% and 56.8% and the “Percentage of time (using CGM) blood glucose level is above 180 mg/dL” value ([1]; UT-1 400 mg once daily) was 20.91% and 42.54% and 22.49% and 30.92% and 36.99%. The “Percentage of time (using CGM) blood glucose level is below 54 mg/dL” value ([1]; UT-1 400 mg once daily) was 0% (3×) and 2.42% and 1.88%, the “Percentage of time (using CGM) blood glucose level is between 54 and 70 mg/dL” value ([1]; UT-1 400 mg once daily) was 4.2% and 0.86% and 5.54% and 0.54% and 4.97% and the “Percentage of time … in range of 70-180 mg/dL” value ([1]; UT-1 800 mg once daily for 7 days with CSII insulin) was 44.3% and 65.4% and 85.9% and 82.7% and 75.7%. The “Percentage of time (using CGM) blood glucose level is above 180 mg/dL” value ([1]; UT-1 800 mg once daily) was 50.66% and 34.56% and 14.07% and 16.82% and 20.46%, the “Percentage of time (using CGM) blood glucose level is below 54 mg/dL” value ([1]; UT-1 800 mg once daily) was 1.38% and 0% (4×) and the “Percentage of time (using CGM) blood glucose level is between 54 and 70 mg/dL” value ([1]; UT-1 800 mg once daily) was 3.27% and 0% (2×) and 0.17% and 0.69%. The “Percentage of time … in range of 70-180 mg/dL” value ([1]; UT-1 1200 mg once daily for 7 days with CSII insulin) was 52.9% and 48.8% and 80.9% and 69.6% and 59.3%, the “Percentage of time (using CGM) blood glucose level is above 180 mg/dL” value ([1]; UT-1 1200 mg once daily) was 42.24% and 50.68% and 18.79% and 24.62% and 30.09% and the “Percentage of time (using CGM) blood glucose level is below 54 mg/dL” value ([1]; UT-1 1200 mg once daily) was 0% (4×) and 3.84%. The “Percentage of time (using CGM) blood glucose level is between 54 and 70 mg/dL” value ([1]; UT-1 1200 mg once daily) was 0.17% (2×) and 0.86% and 1.28% and 5.84%, the “glycemic control and insulin dose (trend)” value ([1]; dose escalation 400, 800, 1200 mg once daily) was “trends toward improved glycemic control while reducing insulin dose” and the “concentrations of UT-1 (pharmacokinetic data)” value [2] was “lower in 3 out of 5 subjects”. For the same molecule, the “mean value of bolus insulin dose per day” value ([3]; 400 mg dose) was 25 mean U/day, the “mean value of bolus insulin dose per day” value ([3]; 800 mg dose) was 20 mean U/day and the “Mean units of basal insulin units administered per day” value ([3]; UT-1 400 mg once daily) was 23.9 mean U/day and 15.5 mean U/day and 29.3 mean U/day and 22.6 mean U/day. For the same molecule, the “Mean units of bolus insulin units administered per day” value ([3]; UT-1 400 mg once daily) was 22.6 mean U/day and 29.9 mean U/day and 25.5 mean U/day and 23.3 mean U/day, the “Mean units of basal insulin units administered per day” value ([3]; UT-1 800 mg once daily) was 22.6 mean U/day and 15.3 mean U/day and 19.6 mean U/day and 29.8 mean U/day and 22.2 mean U/day and the “Mean units of bolus insulin units administered per day” value ([3]; UT-1 800 mg once daily) was 17.6 mean U/day and 23.4 mean U/day and 22.5 mean U/day and 22 mean U/day and 15.8 mean U/day. For the same molecule, the “Mean units of basal insulin units administered per day” value ([3]; UT-1 1200 mg once daily) was 22.9 mean U/day and 13.9 mean U/day and 21.8 mean U/day and 30.5 mean U/day and 19.1 mean U/day, the “Mean units of bolus insulin units administered per day” value ([3]; UT-1 1200 mg once daily) was 16.2 mean U/day and 23.8 mean U/day and 20.9 mean U/day and 28 mean U/day and 25.2 mean U/day and the “ratio of mean carbohydrate intake per day to mean bolus insulin dose per day” value ([3]; from baseline to 400 mg dose, and from 400 mg dose to 800 mg dose) was “increase”. The tolerability (adult patients with T1DM [4]; similar incidences of treatment-emergent adverse events overall and by system organ class) was “well tolerated”, the “diabetic ketoacidosis or severe hypoglycemia reports” value (adult patients with T1DM [4]; whole study) was “no report of diabetic ketoacidosis or severe hypoglycemia” and the serious adverse events (adult patients with T1DM [4]; whole study) was “no serious adverse event”. The “effect on liver function or plasma lipids” value [5] was “No detrimental effect”, the “mean difference in HbA1c in the UT-1 group relative to the placebo group” value (adult patients with T1DM [6]; 800 mg once daily, 12 weeks, p=0.03) was 0.7% and the “ending HbA1c” value (adult patients with T1DM [6]; 800 mg once daily, at 12 weeks, n=8) was 6.7-6.8%. For the same molecule, the “mean reduction in HbA1c” value (adult patients with T1DM [6]; 800 mg once daily, at 12 weeks, n=8, baseline mean HbA1c 7.3%, statistically significant) was 0.6%, the “insulin usage (trend)” value (adult patients with T1DM [6]; 800 mg once daily, up to 12 weeks) was “trends toward decreased insulin usage” and the “patients with abnormal levels of metabolic ketones observed in plasma or urine” value (adult patients with T1DM [6]; 800 mg once daily, placebo 63%) was 13%. For the same molecule, the “proportion of treatment responders” value (adult patients with T1DM [6]; responder: decrease in HbA1c at Week 12, no abnormal lactate or metabolic ketones, no increased time in Level 2 hypoglycemia, placebo 9%, p=0.006) was 75%.
